Experimental data from US20250051338A1, “TYK2 DEGRADERS AND USES THEREOF” (Kymera Therapeutics, Inc., priority 2021, published 2025).

Assays:
Assay type in all cases: cell-based
TYK2 [1] = biological target: T1, TYK2 (Homo sapiens, UniProt P29597); assay: TYK2 degradation MSD assay in human PBMC cells; set-up: endogenous in cells; host or cells: human PBMC; conditions: 4 to 24 hours incubation, read-out: TYK2 MSD DC50 rating in human PBMC
Method in brief: (§1)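 TYK2 levels in lysed cells, detected via antibody capture and SULFO-TAG electrochemiluminescence, were compared across a nine-point threefold compound dilution (highest 1 to 10 μM) after 4–24 h culture at 37° C under 5% CO2. Four-parameter nonlinear regression of the dose response yielded DC50.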

TYK2 [2] = biological target: T1, TYK2; assay: TYK2 degradation MSD assay in EBV-B cells; set-up: endogenous in cells; host or cells: EBV-B cells; conditions: 4 to 24 hours incubation, read-out: TYK2 MSD DC50 rating in EBV-B
Method in brief: as §1

TYK2 [3] = biological target: T1, TYK2; assay: TYK2 degradation MSD assay in OCI-LY10 cells; set-up: endogenous in cells; host or cells: EBV-B cells; conditions: 4 to 24 hours incubation, read-out: TYK2 MSD DC50 rating in OCI-LY10
Method in brief: as §1

T1 sequence (P29597 whole entry): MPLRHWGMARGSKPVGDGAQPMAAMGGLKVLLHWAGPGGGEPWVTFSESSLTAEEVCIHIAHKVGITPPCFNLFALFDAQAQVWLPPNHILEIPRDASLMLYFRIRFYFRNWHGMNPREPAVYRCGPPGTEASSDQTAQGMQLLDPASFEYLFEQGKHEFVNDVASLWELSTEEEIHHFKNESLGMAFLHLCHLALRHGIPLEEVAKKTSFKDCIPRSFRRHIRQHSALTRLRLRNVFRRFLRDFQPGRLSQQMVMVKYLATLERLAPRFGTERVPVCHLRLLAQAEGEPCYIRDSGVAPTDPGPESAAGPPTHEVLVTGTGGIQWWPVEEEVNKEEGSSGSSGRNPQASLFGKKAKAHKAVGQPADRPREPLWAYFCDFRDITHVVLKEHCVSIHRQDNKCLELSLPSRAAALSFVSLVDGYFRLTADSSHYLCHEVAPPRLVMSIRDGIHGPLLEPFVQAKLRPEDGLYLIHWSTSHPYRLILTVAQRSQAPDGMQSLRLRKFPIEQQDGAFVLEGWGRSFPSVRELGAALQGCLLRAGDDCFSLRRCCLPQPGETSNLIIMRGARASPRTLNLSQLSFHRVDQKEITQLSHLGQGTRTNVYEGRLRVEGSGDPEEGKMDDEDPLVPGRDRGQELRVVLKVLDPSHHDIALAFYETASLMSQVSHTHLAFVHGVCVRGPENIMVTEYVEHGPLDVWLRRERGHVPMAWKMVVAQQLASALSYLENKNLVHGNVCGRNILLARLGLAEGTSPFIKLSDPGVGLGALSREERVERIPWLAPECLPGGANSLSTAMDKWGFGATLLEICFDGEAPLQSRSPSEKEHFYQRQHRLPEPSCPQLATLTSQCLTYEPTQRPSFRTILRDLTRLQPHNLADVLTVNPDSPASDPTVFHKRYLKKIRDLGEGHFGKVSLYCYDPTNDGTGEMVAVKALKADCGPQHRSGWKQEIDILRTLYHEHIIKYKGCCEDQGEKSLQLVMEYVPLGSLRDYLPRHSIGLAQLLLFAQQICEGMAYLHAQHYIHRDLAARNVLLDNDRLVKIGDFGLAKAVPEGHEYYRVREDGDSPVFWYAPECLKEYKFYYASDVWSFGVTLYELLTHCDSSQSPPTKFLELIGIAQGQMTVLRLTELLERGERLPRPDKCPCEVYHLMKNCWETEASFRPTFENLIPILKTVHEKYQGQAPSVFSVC

Compound | DC50 (TYK2 [1]) | DC50 (TYK2 [2]) | DC50 (TYK2 [3])
CNc1cc(Nc2cccc(CN3CCN(c4ccc(-c5ccc6c(c5)n(C)c(=O)n6C5CCC(=O)NC5=O)cc4)CC3)c2)nn2c(C(=O)N[C@@H]3C[C@@H]3F)cnc12 (stereo partly drawn) [Example K486] | > 0.1 µM | > 0.1 µM | < 0.001 µM
CNc1cc(Nc2cccc(-c3ccc(CN4CC5(CCN(c6cccc7c6n(C)c(=O)n7C6CCC(=O)NC6=O)CC5)C4)cn3)c2)nn2c(C(=O)N[C@@H]3C[C@@H]3F)cnc12 (stereo partly drawn) [Example K464] | > 0.1 µM | > 0.1 µM | 0.001 to 0.01 µM
CNc1cc(Nc2cccn(-c3ccc(C(=O)NCCCCCCCc4cccc5c4n(C)c(=O)n5C4CCC(=O)NC4=O)cn3)c2=O)nn2c(C(=O)N[C@@H]3C[C@@H]3F)cnc12 (stereo partly drawn) [Example K265] | < 0.001 µM | > 0.1 µM | > 0.1 µM
CNc1cc(Nc2cccc(-c3ccc(CN4CCN(c5ccc(-c6ccc7c(c6)n(C)c(=O)n7C6CCC(=O)NC6=O)cc5)CC4)cn3)c2)nn2c(C(=O)N[C@@H]3C[C@@H]3F)cnc12 (stereo partly drawn) [Example K499] | > 0.1 µM | > 0.1 µM | > 0.1 µM
CNc1cc(Nc2cccn(-c3ccc(C(=O)NCCOCCOCCOCCOCCNc4cncc(N5CCCC(C(=O)Nc6ccc(=O)n(CC(=O)OC)c6)C5)c4)cn3)c2=O)nn2c(C(=O)N[C@@H]3C[C@@H]3F)cnc12 (stereo partly drawn) [Example K618] | > 0.1 µM | > 0.1 µM | > 0.1 µM
CNc1cc(Nc2cccn(-c3ccc(C(=O)NCCCCc4cccc5c4n(C)c(=O)n5C4CCC(=O)NC4=O)cn3)c2=O)nn2c(C(=O)N[C@@H]3C[C@@H]3F)cnc12 (stereo partly drawn) [Example K259] | > 0.1 µM | > 0.1 µM | > 0.1 µM
Cn1c(=O)n(C2CCC(=O)NC2=O)c2ccc(CCCCCCCCCCNc3cc(Nc4cccn(-c5ccccn5)c4=O)nn4c(C(=O)N[C@@H]5C[C@@H]5F)cnc34)cc21 (stereo partly drawn) [Example K210] | > 0.1 µM | > 0.1 µM | > 0.1 µM
CNc1cc(Nc2cccc(CN3CCC([C@@H]4CCN(c5ccc6c(c5)n(C)c(=O)n6C5CCC(=O)NC5=O)C4)CC3)c2)nn2c(C(=O)NC3CC3)ncc12 (stereo partly drawn) [Example K581] | > 0.1 µM | > 0.1 µM | < 0.001 µM
CNc1cc(Nc2cccn(-c3ccc(C(=O)N4CC(N5CCN(c6ccc7c(c6)n(C)c(=O)n7C6CCC(=O)NC6=O)CC5)C4)cn3)c2=O)nn2c(C(=O)N[C@@H]3C[C@@H]3F)cnc12 (stereo partly drawn) [Example K419] | > 0.1 µM | > 0.1 µM | < 0.001 µM
CNC(=O)c1cnc(Nc2ccc(CN(C)CC3CCN(c4ccc5c(c4)n(C)c(=O)n5C4CCC(=O)NC4=O)CC3)cn2)cc1Nc1cccc(-c2ncc(F)cn2)c1OC (stereo not drawn) [Example K135] | < 0.001 µM | < 0.001 µM | > 0.1 µM
CNC(=O)c1cnc(NC(=O)CCCCCCCc2ccc3c(c2)n(C)c(=O)n3C2CCC(=O)NC2=O)cc1Nc1cccc(-c2ncc(F)cn2)c1OC (stereo not drawn) [Example K104] | > 0.1 µM | > 0.1 µM | > 0.1 µM
CNc1cc(Nc2cccn(-c3ccc(C(=O)NCCCCCCCCc4cncc(N5CCC[C@H](C(=O)Nc6ccc(=O)n(CC(=O)OC)c6)C5)c4)cn3)c2=O)nn2c(C(=O)N[C@@H]3C[C@@H]3F)cnc12 [Example K599] | > 0.1 µM | > 0.1 µM | > 0.1 µM
CNC(=O)c1cnc(Nc2ccc(C3CCN(Cc4ccc5c(c4)n(C)c(=O)n5C4CCC(=O)NC4=O)CC3)cn2)cc1Nc1cccc(-c2ncc(F)cn2)c1OC (stereo not drawn) [Example K197] | < 0.001 µM | > 0.1 µM | > 0.1 µM
Cn1c(=O)n(C2CCC(=O)NC2=O)c2ccc(C#CC3CCN(Cc4ccc(-c5cccc(Nc6ccc7ncc(C(=O)NC8CC8)n7n6)c5)nc4)CC3)cc21 (stereo not drawn) [Example K404] | > 0.1 µM | > 0.1 µM | > 0.1 µM
CNc1cc(-c2ccc(-c3ccc(CN4CCN(c5ccc(-c6ccc7c(c6)n(C)c(=O)n7C6CCC(=O)NC6=O)cc5)CC4)cn3)cc2)nn2c(C(=O)N[C@@H]3C[C@@H]3F)cnc12 (stereo partly drawn) [Example K529] | > 0.1 µM | > 0.1 µM | 0.001 to 0.01 µM
CNc1cc(Nc2cccn(-c3ccc(C(=O)N4CCN(CC#Cc5ccc6c(c5)n(C)c(=O)n6C5CCC(=O)NC5=O)CC4)cn3)c2=O)nn2c(C(=O)N[C@@H]3C[C@@H]3F)cnc12 (stereo partly drawn) [Example K417] | > 0.1 µM | > 0.1 µM | > 0.1 µM
CNc1cc(Nc2cccn(-c3ccc(C(=O)N4CCN(CCCOCCc5ccc(-c6ccc7c(c6)n(C)c(=O)n7C6CCC(=O)NC6=O)cc5)CC4)cn3)c2=O)nn2c(C(=O)N[C@@H]3C[C@@H]3F)cnc12 (stereo partly drawn) [Example K379] | > 0.1 µM | < 0.001 µM | > 0.1 µM
Cn1c(=O)n(C2CCC(=O)NC2=O)c2cccc(CCOCCOCCOCCOCCNc3cc(Nc4cccn(-c5ccccn5)c4=O)nn4c(C(=O)N[C@@H]5C[C@@H]5F)cnc34)c21 (stereo partly drawn) [Example K214] | > 0.1 µM | > 0.1 µM | > 0.1 µM
Cn1c(=O)n(C2CCC(=O)NC2=O)c2ccc(-c3ccc(N4CCN(Cc5ccc(-c6cccc(Nc7nn8c(C(=O)N[C@@H]9C[C@@H]9F)cnc8c8c7OCCN8)c6)nc5)CC4)cc3)cc21 (stereo partly drawn) [Example K557] | > 0.1 µM | > 0.1 µM | < 0.001 µM
CNc1cc(Nc2cccn(-c3ccc(C(=O)N4CCN([C@H]5CC[C@H](c6ccc(-c7ccc8c(c7)n(C)c(=O)n8C7CCC(=O)NC7=O)cc6)CC5)CC4)cn3)c2=O)nn2c(C(=O)N[C@@H]3C[C@@H]3F)cnc12 (stereo partly drawn) [Example K380] | < 0.001 µM | < 0.001 µM | < 0.001 µM
CNc1cc(Nc2cccn(-c3ccc(C(=O)N4CCC(N(C)CC5CCN(c6ccc(-c7ccc8c(c7)n(C)c(=O)n8C7CCC(=O)NC7=O)cc6)C5)CC4)cn3)c2=O)nn2c(C(=O)N[C@@H]3C[C@@H]3F)cnc12 (stereo partly drawn) [Example K446] | > 0.1 µM | > 0.1 µM | < 0.001 µM
CNC(=O)c1cnc(NC(=O)NCCCCCCCCc2ccc3c(c2)n(C)c(=O)n3C2CCC(=O)NC2=O)cc1Nc1cccc(-c2ncc(F)cn2)c1OC (stereo not drawn) [Example K187] | 0.001 to 0.01 µM | > 0.1 µM | > 0.1 µM
CNC(=O)c1cnc(Nc2cc(C(=O)NCCCCCCc3ccc4c(c3)n(C)c(=O)n4C3CCC(=O)NC3=O)ccn2)cc1Nc1cccc(-c2ncc(F)cn2)c1OC (stereo not drawn) [Example K127] | < 0.001 µM | > 0.1 µM | > 0.1 µM
CNc1cc(Nc2cccn(-c3cccc(C(=O)NCCCCCCCCCCc4ccc5c(c4)n(C)c(=O)n5C4CCC(=O)NC4=O)c3)c2=O)nn2c(C(=O)N[C@@H]3C[C@@H]3F)cnc12 (stereo partly drawn) [Example K225] | 0.001 to 0.01 µM | > 0.1 µM | > 0.1 µM
CNc1cc(-c2ccc(C3CCN(CC4CCN(c5ccc(-c6ccc7c(c6)n(C)c(=O)n7C6CCC(=O)NC6=O)cc5)CC4)CC3)cc2)c2n3c(cnc13)C(=O)N(C1CC1)C2 (stereo not drawn) [Example K550] | > 0.1 µM | > 0.1 µM | > 0.1 µM
CNc1cc(N2CCc3c(-c4ccc(CN5CCC6(CC5)CCN(C(=O)c5cccc(N7CCC(=O)NC7=O)c5)CC6)cn4)cccc32)nn2c(C(=O)N[C@@H]3C[C@@H]3F)cnc12 [Example K625] | > 0.1 µM | > 0.1 µM | < 0.001 µM
CNc1cc(-c2cnn(C3CN(C(=O)NCCCCc4cccc5c4n(C)c(=O)n5C4CCC(=O)NC4=O)C3)c2)nn2c(C(=O)N[C@@H]3C[C@@H]3F)cnc12 (stereo partly drawn) [Example K316] | > 0.1 µM | > 0.1 µM | > 0.1 µM
